Consider 27 molecules from ChEMBL document CHEMBL1156268, “Michael acceptor based antiplasmodial and antitrypanosomal cysteine protease inhibitors with unusual amino acids” (J Med Chem, 2010).

A short description of series [1]: Inhibition of Plasmodium falciparum recombinant falcipain-3 by standard fluorescence assay.
The subject of series [2] is Plasmodium falciparum. The experiment in a line: Antiplasmodial activity against Plasmodium falciparum W2 by flow cytometry. The series is classed as functional, organism-based.
A short description of series [3]: Inhibition of Plasmodium falciparum recombinant falcipain-2 using Cbz-Leu-Arg-AMC as substrate by standard fluorescence assay.
Series [4] addresses Rhodesain (Trypanosoma brucei rhodesiense) (UniProt Q95PM0). The experiment in a line: Inhibition of Trypanosoma brucei rhodesiense recombinant rhodesain at 100 uM by standard fluorescence assay.
Series [5] can be described thus: Cytotoxicity against mouse J774.1 cells. The series is classed as cell-based.
Series [6] concerns Trypanosoma brucei brucei. Nature of the series: Antitrypanosomal activity against Trypanosoma brucei brucei. The series is classed as functional, organism-based.
The test system of series [7] is Trypanosoma brucei brucei. Nature of the series: Antitrypanosomal activity against Trypanosoma brucei brucei at 100 uM. Format: functional, organism-based.
Series [8] concerns Plasmodium falciparum. Nature of the series: Inhibition of Plasmodium falciparum recombinant falcipain-3 at 100 uM by standard fluorescence assay.
Series [9] has as its system Plasmodium falciparum. The experiment in a line: Inhibition of Plasmodium falciparum recombinant falcipain-2 at 100 uM by standard fluorescence assay.
In series [10] the test system is Plasmodium falciparum. The experiment in a line: Antiplasmodial activity against Plasmodium falciparum W2 at 100 uM by flow cytometry. The series is classed as functional.
The test system of series [11] is Plasmodium falciparum. The experiment in a line: Antiplasmodial activity against Plasmodium falciparum FCBR by flow cytometry. The following applies: FCBR/Columbia. Format: functional, organism-based.
The nature of series [12]: Selectivity index, ratio of IC50 for mouse J774.1 cells to IC50 for Trypanosoma brucei brucei. The series is classed as toxicity. The following applies: J774.1 cells versus Trypanosoma brucei brucei, read-out: Ratio IC50.
Series [13] deals with Rhodesain (Trypanosoma brucei rhodesiense) (UniProt Q95PM0). The experiment in a line: (§1) Inhibition of Trypanosoma brucei rhodesiense recombinant rhodesain by standard fluorescence assay. The following applies: TDE = time-dependent effect.
The target of series [14] is T1, Rhodesain (Trypanosoma brucei rhodesiense, UniProt Q95PM0). The series is described as §1.
The target in series [15] is T1, Rhodesain. Nature of the series: Inhibition of Trypanosoma brucei rhodesiense recombinant rhodesain by standard fluorescence assay in presence of DTT.

The source made the active and inactive calls. The calls are words filed in the database; no cut-off is given here. Some results are limits rather than exact numbers.

Rhodesain (Trypanosoma brucei rhodesiense), sequence (Q95PM0 1-450): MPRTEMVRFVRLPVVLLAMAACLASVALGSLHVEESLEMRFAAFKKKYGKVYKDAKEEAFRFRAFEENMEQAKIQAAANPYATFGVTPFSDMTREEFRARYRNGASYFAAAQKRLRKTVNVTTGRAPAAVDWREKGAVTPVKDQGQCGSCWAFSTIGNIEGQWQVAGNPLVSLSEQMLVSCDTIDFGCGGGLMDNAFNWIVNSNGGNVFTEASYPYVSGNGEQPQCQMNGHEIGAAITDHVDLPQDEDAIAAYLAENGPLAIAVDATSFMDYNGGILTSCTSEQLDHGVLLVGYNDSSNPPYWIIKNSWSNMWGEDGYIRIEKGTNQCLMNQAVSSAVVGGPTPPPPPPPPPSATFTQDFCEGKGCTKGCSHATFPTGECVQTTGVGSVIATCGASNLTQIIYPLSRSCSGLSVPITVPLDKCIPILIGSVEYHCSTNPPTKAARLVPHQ
T1 sequence (Q95PM0 whole entry): as the sequence (Q95PM0 1-450) above

`CCOC(=O)/C=C\C(=O)N[C@@H](Cc1ccccc1)C(=O)N[C@@H](C)C(=O)N[C@@H](CC(C)C)C(=O)OCc1ccccc1`: the Ki in series [1] amounted to 36.8 µM; in series [3], 6.6 µM. The IC50 in series [2] worked out at 28.4 µM; in series [5], 29 µM; in series [6] it was 14.9 µM. Moreover, the inhibition in series [4] is 29%.
Consider `CCOC(=O)/C=C/COC(=O)[C@H](CC(N)=O)NC(=O)[C@@H](NC(=O)OC(C)(C)C)C1CCCCC1`, for which the inhibition result in [7], in [8], in [4] and in series [9] was “inactive” each time. In addition, half-maximal inhibition in series [2] (IC50) was put at 13.2 µM.
`CCOC(=O)/C=C\C(=O)N[C@@H](Cc1ccccc1)C(=O)OCc1ccccc1`: the inhibition result in series [8] was “inactive”. The Ki in series [3] was determined as 26.1 µM. The molecule further came in with an inhibition at 100 µM in series [10] of 28%. The inhibition in series [4] came out at 15%. Moreover, the values for the concentration for half-maximal inhibition (IC50) in series [5] and in [6] were 3.3 µM and 8 µM, respectively.
Consider `CCOC(=O)/C=C/CCOC(=O)[C@H](Cc1ccccc1)NC(=O)OCc1ccccc1`, for which the inhibition entry in series [8] and in series [10] was “inactive” in each case. Moreover, the Ki in series [3] was determined as 29.1 µM. Also, the inhibition in [4] turned out to be 36%. Besides, the IC50 in series [5] was above 100 µM; in [6], 19 µM.
Consider `CCOC(=O)/C=C/C(=O)O.CCOC(=O)/C=C/C(=O)OC[C@H](CC(N)=O)NC(=O)[C@@H](NC(=O)OC(C)(C)C)c1ccccc1`, for which the results for the IC50 in series [11] and in series [6] were 21.7 µM and 33.2 µM, respectively. Also, the inhibition came to 51% in series [4] and 45% in [9].
Consider `CCOC(=O)/C=C/[C@H](CCC(=O)NC(c1ccccc1)(c1ccccc1)c1ccccc1)NC(=O)OC(C)(C)C`, for which, in series [12], the selectivity ratio was above 36. Also, the Ki in series [1] worked out at 8.2 µM; in series [14], 4.3 µM; in series [15] it was 3.6 µM; in [3], 1.8 µM. The “Time-dependent inhibition (qualitative)” value in series [13] was “tde”. For the same molecule, the half-inhibitory concentration (IC50) is 4 µM in [2], above 100 µM in [5] and 2.8 µM in series [6].
Turning to `CCOC(=O)/C=C\CNC(=O)[C@@H](Cc1ccccc1)NC(=O)OC(C)(C)C`, the 50% inhibitory concentration (IC50) worked out at 43.1 µM in series [2] and 29 µM in [6]. Besides, the inhibition in series [4] was found to be 47%. In addition, in series [9], the inhibition entry was “inactive”.
Regarding `CCOC(=O)/C=C/C(=O)N[C@@H](CCC(N)=O)C(=O)OC(C)(C)C`, the inhibition result in [7], in series [8], in series [4] and in series [9] was “inactive” each time. Further, inhibition in series [2] was half-maximal at 75.3 µM (IC50).
In the case of `CCOC(=O)/C=C/[C@@H](CCC(=O)NC(c1ccccc1)(c1ccccc1)c1ccccc1)NC(=O)[C@@H](NC(=O)OC(C)(C)C)c1ccccc1`, the selectivity ratio in series [12] is 17. Moreover, the IC50 in series [11] is 0.9 µM; in series [5] it was 60 µM; in series [6], 3.5 µM. Further, the “Time-dependent inhibition (qualitative)” value in series [13] is “tde”. For the same molecule, the Ki in series [14] was determined as 0.14 µM; in series [3] it was 0.49 µM.
Consider `CC(C)C[C@H](NC(=O)[C@H]1O[C@@H]1C(=O)O)C(=O)NCCCCN=C(N)N` [E-64], for which, in [11], the midpoint of inhibition, the IC50, lay at 3.2 µM. In addition, the inhibitory constant (Ki) in series [1] was 0.22 µM; in [3], 0.025 µM.
For the molecule `CCOC(=O)/C=C\C(=O)N[C@@H](Cc1ccccc1)C(=O)N[C@@H](C)C(=O)OCc1ccccc1`, the inhibition entry in series [8] and in series [10] was “inactive” throughout. The Ki in series [3] came to 25.1 µM. For the same molecule, the inhibition in series [4] worked out at 43%. The figures for the IC50 in series [5] and in [6] were 3 µM and 2.7 µM, respectively.
`O=C(O)/C=C\C(=O)N[C@@H](Cc1ccccc1)C(=O)OCc1ccccc1`: the inhibition result in series [7] and in series [4] was “inactive” throughout. Also, the Ki in series [1] came out at 43 µM; in series [3], 7.6 µM. The molecule further registered an IC50 in [2] of 100 µM.
For the molecule `O=C(/C=C/C(=O)N[C@@H](Cc1ccccc1)C(=O)OCc1ccccc1)N[C@@H](Cc1ccccc1)C(=O)OCc1ccccc1`, the inhibition entry in series [7] and in [10] was “inactive” throughout. In addition, the Ki in series [1] was found to be 2.8 µM; in series [14], 0.34 µM; in [3] it was 0.98 µM. The “Time-dependent inhibition (qualitative)” value in series [13] is “tde”.
`C[C@H](NC(=O)[C@H](Cc1ccccc1)NC(=O)/C=C\C(=O)N[C@@H](Cc1ccccc1)C(=O)OCc1ccccc1)C(=O)O`: in [12], the selectivity ratio turned out to be 10. Moreover, the results for the Ki in series [1], in [14] and in series [3] were 42.2 µM, 1.4 µM and 3.8 µM, respectively. Besides, the results for the IC50 in series [2], in [5] and in series [6] were 8 µM, 32 µM and 2.2 µM, respectively.
Regarding `CCOC(=O)/C=C/CN[C@@H](CC(N)=O)C(=O)OC(C)(C)C`, the inhibition result in series [7], in [8], in series [10], in series [4] and in series [9] was “inactive” each time.
On to `CCOC(=O)/C=C/C(=O)O.CCOC(=O)/C=C/C(=O)OC[C@H](CC(N)=O)NC(=O)OC(C)(C)C`, for which the inhibition result in series [7], in [8], in series [10], in [4] and in series [9] was “inactive” each time.
`CCOC(=O)/C=C/C(=O)O.CCOC(=O)/C=C/C(=O)OC[C@H](CCC(N)=O)NC(=O)OC(C)(C)C`: the inhibition result in series [7], in series [8], in [10], in series [4] and in [9] was “inactive” throughout.
On to `CCOC(=O)/C=C/CN[C@@H](CCC(N)=O)C(=O)OC(C)(C)C`, for which the inhibition result in series [7], in series [8], in series [10], in series [4] and in [9] was “inactive” each time.
As for `CCOC(=O)/C=C/CN[C@@H](Cc1ccccc1)C(=O)OCc1ccccc1`, the inhibition entry in series [8], in [10] and in series [4] was “inactive” each time. In series [3], the Ki was determined as 152 µM. For the same molecule, the IC50 in [5] came out at 36.1 µM; in series [6], 25 µM.
Turning to `CCOC(=O)/C=C/C(=O)N[C@@H](CCC(=O)NC(c1ccccc1)(c1ccccc1)c1ccccc1)C(=O)OC`, the Ki in series [1] stood at 14.7 µM; in series [14] it was 1.4 µM; in series [3], 3.3 µM. Further, the IC50 in series [2] turned out to be 4.7 µM; in [6], 31 µM.
For `CCOC(=O)/C=C/C(=O)N[C@@H](Cc1ccccc1)C(=O)OCc1ccccc1`, the selectivity ratio in [12] stood at 10. The Ki came to 65.9 µM in series [1], 7.6 µM in series [14] and 4.7 µM in series [3]. Also, in series [10], the inhibition result was “inactive”. Also, the IC50 was found to be 3.5 µM in series [5] and 0.25 µM in series [6].
As to `O=C(/C=C\C(=O)N[C@@H](Cc1ccccc1)C(=O)OCc1ccccc1)N[C@@H](Cc1ccccc1)C(=O)O`, the selectivity ratio in [12] was found to be 10. In addition, the inhibitory constant (Ki) in series [14] turned out to be 0.15 µM; in series [3], 10.2 µM. Also, in series [8], the inhibition result is “inactive”. For the same molecule, the IC50 in series [2] amounted to 100 µM; in series [5], 31 µM; in series [6], 2.9 µM.
As for `CCOC(=O)/C=C\[C@H](Cc1ccccc1)NC(=O)OC(C)(C)C`, the inhibition entry in series [7] and in series [4] was “inactive” each time. Besides, the values for the Ki in [1] and in series [3] were 198 µM and 16.7 µM, respectively. Also, the IC50 in series [2] is 100 µM.
Turning to `CCOC(=O)/C=C/N[C@@H](CC(N)=O)C(=O)OC(C)(C)C`, the inhibition entry in series [7], in series [8], in series [10], in series [4] and in series [9] was “inactive” in each case.
For the molecule `CCOC(=O)/C=C/COC(=O)[C@H](CCC(N)=O)NC(=O)[C@H](CC(C)C)NC(=O)[C@H](C)NC(=O)OC(C)(C)C`, the inhibition result in [7] and in [4] was “inactive” in each case. The values for the Ki in [1] and in series [3] were 23.9 µM and 3.1 µM, respectively. In series [2], this molecule returned an IC50 of 20.8 µM.
As to `CCOC(=O)/C=C/COC(=O)[C@H](CC(N)=O)NC(=O)OC(C)(C)C`, the inhibition result in [7] and in series [4] was “inactive” each time. For the same molecule, the values for the Ki in series [1] and in series [3] were 58 µM and 17 µM, respectively. In series [2], this molecule showed an IC50 of 34.8 µM.
For the molecule `C/C=C/C(=O)N[C@@H](Cc1ccccc1)C(=O)OCc1ccccc1`, the inhibition entry in series [8], in series [10] and in series [4] was “inactive” each time. For the same molecule, the Ki in series [3] stood at 20.3 µM. The IC50 stood at 45.2 µM in series [5] and 2.8 µM in series [6].
